Measured values: ChEMBL document CHEMBL1201862, “PubChem BioAssay data set” (2004)
Calls of active or inactive are those of the source.

What was measured:
[1] = target: T1, Adenosylmethionine-8-amino-7-oxononanoate aminotransferase (Mycobacterium tuberculosis, UniProt P9WQ81); assay: Mycobacterium tuberculosis BioA enzyme inhibitor Measured in Biochemical System Using Plate Reader - 2163-02_Inhibitor_Dose_CherryPick_Activity.; assay type: functional, Mycobacterium tuberculosis UT205
T1 sequence (P9WQ81 whole entry): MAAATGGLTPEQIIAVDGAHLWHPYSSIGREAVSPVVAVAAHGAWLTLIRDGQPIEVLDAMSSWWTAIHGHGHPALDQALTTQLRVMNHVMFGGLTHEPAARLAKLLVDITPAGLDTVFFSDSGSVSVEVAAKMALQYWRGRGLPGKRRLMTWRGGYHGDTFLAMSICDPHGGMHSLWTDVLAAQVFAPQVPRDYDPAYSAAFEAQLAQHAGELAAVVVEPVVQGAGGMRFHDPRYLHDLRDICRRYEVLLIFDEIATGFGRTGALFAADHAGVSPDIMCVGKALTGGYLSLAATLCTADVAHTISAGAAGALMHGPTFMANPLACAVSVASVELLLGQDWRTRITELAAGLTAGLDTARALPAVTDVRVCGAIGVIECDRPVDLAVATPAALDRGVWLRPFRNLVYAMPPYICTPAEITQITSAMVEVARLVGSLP

[2] = target: Photoreceptor-specific nuclear receptor (Homo sapiens, UniProt Q9Y5X4); assay type: functional, cell-based;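 also: CHO-S cells with Gal4-NCOR and VP16-NR2E3 two-hybrid luciferase reporter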
HEK293 [3] = assay: NOD2 signaling inhibitors in MDP-stimulated cells, cell-based, uHTS, luminescence (AID 2001); assay type: functional; conditions: Homo sapiens
HEK293 [4] = assay: cells; assay type: functional, cell-based; conditions: Homo sapiens
HEK293 [5] = assay: cells; assay type: functional, cell-based; conditions: Homo sapiens; remark: listed apart in the source
HEK293 [6] = assay: NOD1 signaling inhibitors, primary screen, cell-based, luminescence, uHTS (AID 1578); assay type: functional; conditions: Homo sapiens
[7] = target: Peroxisome proliferator-activated receptor gamma/Nuclear receptor coactivator 2 (Homo sapiens, UniProt P37231); assay: (§1) TR-FRET dose response biochemical High Throughput Screening assay for agonists of the steroid receptor coactivator 2 (SRC-2) recruitment by the peroxisome proliferator-activated receptor gamma (PPAR gamma): non-selective agonists. [Related pubchem assays: 1297, 1032 ]; assay type: functional
Fatty acid synthase [8] = target: T2, Fatty acid synthase (Homo sapiens, UniProt P49327); assay: FAS thioesterase domain inhibitors, dose response, biochemical, kinetic fluorescence intensity (AID 624326); assay type: functional;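 also: rate of fluorescence rise from hydrolysis of a fluorogenic O-methyl fluorescein ester substrate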
[9] = target: T3, Short transient receptor potential channel 4 (Mus musculus, UniProt Q9QUQ5); assay: mouse TRPC4 channel inhibitors, dose response, cell-based, HEK293 TRPC4/mu-opioid, Fluo-4 calcium (AID 434942); assay type: functional;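 also: potency of inhibitors blocking the TRPC4 calcium response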
T3 sequence (Q9QUQ5 whole entry): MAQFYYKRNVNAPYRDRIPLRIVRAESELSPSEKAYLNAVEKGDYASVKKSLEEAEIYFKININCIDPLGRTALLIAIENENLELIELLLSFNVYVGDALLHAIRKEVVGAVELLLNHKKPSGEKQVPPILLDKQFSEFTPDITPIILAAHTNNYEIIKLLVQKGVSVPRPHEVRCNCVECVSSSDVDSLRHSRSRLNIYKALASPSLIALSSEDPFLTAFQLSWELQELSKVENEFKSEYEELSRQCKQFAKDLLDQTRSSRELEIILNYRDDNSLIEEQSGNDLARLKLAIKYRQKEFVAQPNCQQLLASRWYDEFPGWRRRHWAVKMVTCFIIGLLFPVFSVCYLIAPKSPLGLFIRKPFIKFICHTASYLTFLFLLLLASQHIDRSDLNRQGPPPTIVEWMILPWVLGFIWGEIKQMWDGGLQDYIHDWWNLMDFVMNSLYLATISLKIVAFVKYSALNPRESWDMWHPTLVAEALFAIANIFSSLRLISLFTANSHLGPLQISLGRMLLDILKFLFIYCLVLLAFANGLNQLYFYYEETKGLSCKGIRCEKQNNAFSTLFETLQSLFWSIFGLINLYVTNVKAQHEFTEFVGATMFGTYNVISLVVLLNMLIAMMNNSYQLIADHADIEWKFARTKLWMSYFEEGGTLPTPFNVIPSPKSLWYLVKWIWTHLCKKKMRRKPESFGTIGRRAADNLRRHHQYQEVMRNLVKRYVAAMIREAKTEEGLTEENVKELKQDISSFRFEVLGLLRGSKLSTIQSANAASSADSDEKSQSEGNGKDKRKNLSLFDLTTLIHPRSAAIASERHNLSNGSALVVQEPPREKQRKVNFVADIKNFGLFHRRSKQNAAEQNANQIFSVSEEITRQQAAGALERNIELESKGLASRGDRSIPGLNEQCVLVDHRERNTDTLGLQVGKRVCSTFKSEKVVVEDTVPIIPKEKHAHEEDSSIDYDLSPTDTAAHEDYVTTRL

[10] = target: Peroxisome proliferator-activated receptor gamma/Nuclear receptor coactivator 1 (Homo sapiens, UniProt P37231); assay: as §1, with “1 (SRC-1)” for “2 (SRC-2)”, “assays (depositor defined):AID1300, AID1808, AID504735, AID631]” for “assays: 1297, 1032 ]”; assay type: protein assay
SUMO-activating enzyme [11] = target: T4, SUMO-activating enzyme (Homo sapiens, UniProt Q9UBT2); assay: SUMOylation inhibitor hit validation, confirmation, SUMOylation inhibitor project, biochemical, AlphaScreen (AID 2018); assay type: functional
Fatty acid synthase [12] = target: T2, Fatty acid synthase; assay: FAS thioesterase domain inhibitors, dose response, biochemical, endpoint fluorescence intensity, uHTS hits (AID 624327); assay type: functional;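 also: fluorescence from hydrolysis of an O-methyl fluorescein acyl ester substrate by the enzyme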
[13] = target: Peroxisome proliferator-activated receptor gamma/Nuclear receptor coactivator 3 (Homo sapiens, UniProt P37231); assay: as §1, with “3 (SRC-3)” for “2 (SRC-2)”, “1301 (Confirmation screen.), 1048 (Primary screen.)]” for “1297, 1032 ]”; assay type: functional
SUMO-activating enzyme [14] = target: T4, SUMO-activating enzyme; assay: inhibitors of in vitro SUMOylation cascade, primary screen, biochemical, HTRF, uHTS (AID 2006); assay type: protein-complex assay
Major prion protein = Major prion protein (Homo sapiens, UniProt P04156); assay type: functional, cell-based
Coagulation factor XII = target: T5, Coagulation factor XII (Homo sapiens, UniProt P00748); assay type: functional;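 also: activated factor XIIa alpha cleaving a fluorogenic AMC peptide substrate; inhibitor potency from loss of enzyme activity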
T5 sequence (P00748 whole entry): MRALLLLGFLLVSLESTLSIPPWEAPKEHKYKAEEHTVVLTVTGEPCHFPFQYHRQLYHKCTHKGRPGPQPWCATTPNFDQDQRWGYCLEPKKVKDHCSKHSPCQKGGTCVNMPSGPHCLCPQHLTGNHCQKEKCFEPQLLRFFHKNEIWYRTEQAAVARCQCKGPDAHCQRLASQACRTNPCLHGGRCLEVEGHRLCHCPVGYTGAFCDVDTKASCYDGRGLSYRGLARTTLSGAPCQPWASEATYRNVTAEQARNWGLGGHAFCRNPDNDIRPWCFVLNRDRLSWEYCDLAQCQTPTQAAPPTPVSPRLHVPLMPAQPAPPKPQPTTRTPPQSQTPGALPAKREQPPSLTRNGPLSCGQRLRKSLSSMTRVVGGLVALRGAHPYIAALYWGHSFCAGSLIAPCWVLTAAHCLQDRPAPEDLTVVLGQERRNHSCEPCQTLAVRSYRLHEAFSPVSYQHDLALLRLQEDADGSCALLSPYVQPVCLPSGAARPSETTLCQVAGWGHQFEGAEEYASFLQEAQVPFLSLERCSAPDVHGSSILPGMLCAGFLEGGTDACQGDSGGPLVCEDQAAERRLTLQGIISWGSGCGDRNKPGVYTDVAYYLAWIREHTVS

[15] = target: Dual specificity tyrosine-phosphorylation-regulated kinase 1A (Rattus norvegicus, UniProt Q63470); assay type: biochemical, Homo sapiens
[16] = target: T6, Methionyl-tRNA synthetase, putative (Trypanosoma brucei brucei, UniProt Q38C91); assay type: functional, Trypanosoma brucei brucei strain 927/4 GUTat10.1
T6 sequence (Q38C91 whole entry): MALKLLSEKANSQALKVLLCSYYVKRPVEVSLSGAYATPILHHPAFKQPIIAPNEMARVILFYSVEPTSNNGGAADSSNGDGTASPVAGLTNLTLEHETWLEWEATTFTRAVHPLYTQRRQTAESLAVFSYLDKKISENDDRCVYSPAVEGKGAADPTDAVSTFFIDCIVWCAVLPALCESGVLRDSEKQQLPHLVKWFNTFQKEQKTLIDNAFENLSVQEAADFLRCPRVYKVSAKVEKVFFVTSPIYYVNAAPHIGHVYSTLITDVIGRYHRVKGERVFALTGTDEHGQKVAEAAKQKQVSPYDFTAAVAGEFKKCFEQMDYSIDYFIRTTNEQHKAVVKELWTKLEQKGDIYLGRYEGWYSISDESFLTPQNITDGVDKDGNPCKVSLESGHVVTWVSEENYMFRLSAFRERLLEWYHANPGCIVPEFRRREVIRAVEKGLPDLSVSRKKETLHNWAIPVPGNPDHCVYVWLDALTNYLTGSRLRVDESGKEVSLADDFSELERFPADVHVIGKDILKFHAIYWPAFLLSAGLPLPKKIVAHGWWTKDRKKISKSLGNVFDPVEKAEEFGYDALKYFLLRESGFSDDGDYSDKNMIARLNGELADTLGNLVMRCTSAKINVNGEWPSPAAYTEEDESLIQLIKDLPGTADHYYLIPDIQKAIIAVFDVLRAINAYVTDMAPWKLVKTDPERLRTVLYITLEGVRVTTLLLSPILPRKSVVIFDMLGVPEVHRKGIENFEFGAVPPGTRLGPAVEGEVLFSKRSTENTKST

[17] = target: T6, Methionyl-tRNA synthetase, putative; assay type: functional, Trypanosoma brucei brucei strain 927/4 GUTat10.1; remark: listed apart in the source
[18] = target: T7, Heat shock factor protein 1 (Mus musculus, UniProt P38532); assay: HSF1 potentiators in luciferase reporter cells, confirmation, cell-based, NIH3T3, luminescence, dose retest (AID 435004); assay type: functional;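 also: stress induced by proteasome inhibitor MG132 added 30 min after compound; luciferase reporter driven by HSF1 response element in NIH3T3 cells; actives raise luminescence as potentiators of the MG132 stress response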
T7 sequence (P38532 whole entry): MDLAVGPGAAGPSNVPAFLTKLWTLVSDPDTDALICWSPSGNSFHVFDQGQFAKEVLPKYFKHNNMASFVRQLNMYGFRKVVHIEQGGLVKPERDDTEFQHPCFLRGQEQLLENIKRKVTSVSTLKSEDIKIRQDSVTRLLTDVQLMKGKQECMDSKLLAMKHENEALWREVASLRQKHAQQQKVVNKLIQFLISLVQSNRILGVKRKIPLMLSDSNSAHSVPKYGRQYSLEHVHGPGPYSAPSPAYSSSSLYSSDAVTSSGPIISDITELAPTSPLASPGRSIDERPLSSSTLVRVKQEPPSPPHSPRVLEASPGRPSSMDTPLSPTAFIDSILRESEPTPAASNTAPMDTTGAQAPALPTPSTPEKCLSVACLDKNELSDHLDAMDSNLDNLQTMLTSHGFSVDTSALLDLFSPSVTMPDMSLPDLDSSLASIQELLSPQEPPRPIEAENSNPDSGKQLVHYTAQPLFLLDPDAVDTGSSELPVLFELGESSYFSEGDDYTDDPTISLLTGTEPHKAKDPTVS

[19] = Counterscreen for inhibitors of Trypanosoma brucei methionyl tRNA synthetase (MetRS): Luminescence-based cell-based high throughput dose response assay to identify compounds that are cytotoxic to Jurkat human T lymphocyte cells.; assay type: functional
[20] = target: Glucose-6-phosphate 1-dehydrogenase (Homo sapiens, UniProt P11413); assay: human G6PD enzyme inhibitors, dose response, selectivity assay for P. falciparum G6PD inhibitor project, biochemical, fluorescence (AID 504792); assay type: functional

CCN1[C@H](C(=O)NCc2ccccc2)[C@@H](CO)[C@@H]2Cn3c(ccc(-c4cccnc4)c3=O)[C@@H]21
AC50 [1]: 13.2 µM (active)

CCC1(OC(=O)CN(C)C)C(=O)OCc2c1cc1n(c2=O)Cc2cc3c(N)cccc3nc2-1 (stereo not given)
IC50 [2]: 2.92 µM (active)

COc1ccc(S(=O)(=O)N2CCCCC2)cc1N=C(S)Nc1cccc(Cl)c1C
IC50 [2]: 0.962 µM (active)

O=C(C[C@H]1C[C@@H]2c3cc(NC(=O)c4cccnc4)ccc3O[C@@H]2[C@@H](CO)O1)NCC(F)(F)F
AC50 [1]: 16.8 µM (active)

O=C(c1ccccc1F)N1CC[C@@H]2[C@H]1c1cc(Br)ccc1N[C@@H]2CO
AC50 [1]: 1.53 µM (active)

CCC(NC(=O)c1ccc2nc(Cc3ccc(OC)cc3)oc2c1)c1ccncc1 (stereo not given)
IC50 (HEK293 [3]): 12.5 µM (inactive) | IC50 (HEK293 [4]): 8.15 µM (active) | IC50 (HEK293 [5]): 16.5 µM (active) | EC50 (HEK293 [6]): 4.58 µM (active)

N#Cc1c(-c2cccs2)nc(SCc2ccc(Cl)cc2)[nH]c1=O
EC50 [7]: > 79.4 µM (not active) | IC50 (Fatty acid synthase [8]): 5.61 µM (active) | EC50 [9]: 4.22 µM (active) | EC50 [10]: > 79.4 µM (inactive) | IC50 (SUMO-activating enzyme [11]): 9.93 µM (active) | IC50 (Fatty acid synthase [12]): 6.44 µM (active) | EC50 [13]: > 79.4 µM (not active) | IC50 (SUMO-activating enzyme [14]): 18 µM (active) | IC50 (Major prion protein): 1.05 µM (active)

CC(C)C(NC(=O)CC12CC3CC(CC(C3)C1)C2)C(=O)O (stereo not given)
IC50 (Coagulation factor XII): > 50 µM (inactive)

CN(c1ccccc1)S(=O)(=O)c1ccc(NC(=S)NC(=O)c2ccccc2)cc1
IC50 (Coagulation factor XII): > 50 µM (inactive)

CC(=O)Oc1ccc2c(c1)C(=O)c1ccccc1C2=O
AC50 [15]: 36.2 µM (active)

CCOC(=O)c1cccc(NC(=O)Cn2c(CC(=O)NC)nc3ccccc32)c1
IC50 [16]: 6.01 µM (active) | IC50 [17]: 2.05 µM (active) | EC50 [18]: > 260 µM (inactive) | IC50 [19]: 83.3 µM (inactive)

CCN(CC)CCn1c2ccccc2c(=O)c2c(O)ccc(O)c21
AC50 [15]: 3.16 µM (active) | IC50 [20]: 64.6 µM (inactive)

Cc1cccc(NC(=O)CSCc2c(C)noc2C)c1C
IC50 (Coagulation factor XII): > 50 µM (inactive)

N#Cc1c(O)nc(SCc2ccc(Cl)cc2)nc1-c1cccs1
IC50 (HEK293 [3]): 6.99 µM (inactive) | IC50 (HEK293 [4]): 11.5 µM (active) | IC50 (HEK293 [5]): 18.9 µM (active) | EC50 (HEK293 [6]): 4.58 µM (active) | IC50 (cells): > 138 µM (inactive)

O=C1N=C(NS(=O)(=O)Cc2ccccc2)S/C1=C/c1ccc2c(c1)OCO2
AC50 [15]: 2.56 µM (active)

O=C(NNc1c(Cl)cc(Cl)cc1Cl)c1nnc(O)c2ccccc12
IC50 (Coagulation factor XII): > 50 µM (inactive)
